Assay results taken from patent publication US9018175B2 (Takeda GmbH, priority 2009, dated 2015).

How the values were obtained:
PDE4B1 = target: T1, PDE4B1 (Homo sapiens, UniProt Q07343); test: Inhibition of PDE4B1 activity (SPA, [3H]cAMP); format: biochemical; details: recombinant PDE4B1 expressed in SF21 cells; 0.5 pM [sic] cAMP; values given as bins; read-out: PDE4B1 inhibitory values measured as −logIC50 (converted)
T1 construct: made in house; host or cells: SF21 insect cells (baculovirus; pCR-Bac vector)
Procedure: The PDE4B1 (GB no. L20966) was a gift of Prof. M. Conti (Stanford University, USA). It was amplified from the original plasmid (pCMV5) via PCR with primers Rb18 (5′-[…]-3′) and Rb10 (5′-[…]-3′) and cloned into the pCR-Bac vector (Invitrogen, Groningen, NL).
The recombinant baculovirus was prepared by means of homologous recombination in SF9 insect cells. The expression plasmids were cotransfected with Baculo-Gold DNA (Pharmingen, Hamburg) using a standard protocol (Pharmingen, Hamburg). Wt virus-free recombinant virus supernatants were selected using plaque assay methods. After that, high-titre virus supernatants were prepared by amplifying 3 times. PDE4B1 was expressed in SF21 cells by infecting 2×10^6 cells/ml with an MOI (multiplicity of infection) between 1 and 10 in the serum-free medium Insect Express Sf9-S2 (PAA, Pasching, Austria). The cells were cultured at 28° C. for 48-72 hours, after which they were pelleted for 5-10 min at 1000×g and 4° C.
The SF21 insect cells were resuspended, at a concentration of approx. 10^7 cells/ml, in ice-cold (4° C.) homogenization buffer (20 mM Tris, pH 8.2, containing the following additions: 140 mM NaCl, 3.8 mM KCl, 1 mM EGTA, 1 mM MgCl2, 10 mM e-mercaptoethanol, 2 mM benzamidine, 0.4 mM Pefablock, 10 pM leupeptin, 10 pM pepstatin A, 5 pM trypsin inhibitor) and disrupted by ultrasonication. The homogenate was then centrifuged for 10 min at 1000, g and the supernatant was stored at −80° C. until subsequent use (see below). The protein content was determined by the Bradford method (BioRad, Munich) using BSA as the standard.
PDEB1 activities were measured in a 96-well platform using SPA (scintillation proximity assay) yttrium silicate beads (RPNQ1050 from GE Healthcare). In a first step the PDE activity operates hydrolysis of either [^3H] cAMP (substrate) into [^3H] 5′AMP. In a second step substrate and product are distinguished following addition of SPA yttrium silicate beads. Indeed, in the presence of zinc sulphate the linear [^3H] […] Close proximity of bound [^3H] […] The test volume is 100 pl and contains 20 mM Tris buffer (pH 7.4), 0.1 mg/ml of BSA, 5 mM Mg^2+, […] (including about 50,000 cpm of [3H]cAMP), 1 pl of the respective substance dilution in DMSO and sufficient recombinant PDE (1000, g supernatant, see above) to ensure that 10-20% of the cAMP is converted under the said experimental conditions. […] After a preincubation of 5 min at 37° C., the reaction is started by adding the substrate (cAMP) and the assays are incubated for a further 15 min; after that, they are stopped by adding SPA beads (50 pl). In accordance with the manufacturer's instructions, the SPA beads had previously been resuspended in water, but were then diluted 1:3 (v/v) in water; the diluted solution also contains 3 mM IBMX to ensure a complete PDE activity stop. After the beads have been sedimented (>30 min), the MTP's are analyzed in commercially available luminescence detection devices. The corresponding IC50 values of the compounds for the inhibition of PDE4B1 activity are determined from the concentration-effect curves by means of non-linear regression.

human PDE5 = target: T2, human PDE5 (Homo sapiens, UniProt O76074); test: Inhibition of PDE5 activity (SPA, [3H]cGMP, platelet lysate); format: biochemical; details: PDE5 from human platelet lysate; values given as bins; read-out: PDE5A inhibitory values measured as −logIC50 (converted)
T2 construct: from tissue; host or cells: human platelets from fresh donor blood (10,000 g supernatant of sonicated platelets)
Procedure: As a source for human PDE5, platelets are used. For that purpose, 150 ml fresh blood from human donors anticoagulated with citrate [final concentration 0.3% (w/v)] is centrifuged at 200 g for 10 min to obtain the so-called platelet-rich-plasma (PRP) as a supernatant. 1/10 volume of ACD solution (85 mM Na3-citrate, 111 mM D-glucose, 71 mM citric acid, pH 4.4) is added to 9/10 volume of PRP. After centrifugation (1,400 g, 10 min) the cell pellet is resuspended in 3 ml homogenization buffer (NaCl 140 mM, KCl 3.8 mM, EGTA (ethylene glycol tetraacetic acid) 1 mM, MgCl2 1 mM, Tris-HCl 20 mM, beta-mercaptoethanol 1 mM, pH 8.2) plus protease-inhibitor mix giving rise to the final concentrations of 0.5 mM Pefablock (Roche), 10 μM Leupeptin, 5 μM Trypsininhibitor, 2 mM Benzamidin and 10 μM Pepstatin A. The suspension is sonified and thereafter centrifuged for 15 min at 10,000 g. The resulting supernatant (platelet lysate) is used for enzymatic testings.
PDE5 activities were measured in a 96-well platform using SPA (scintillation proximity assay) yttrium silicate beads (RPNQ1050 from GE Healthcare). In a first step the PDE activity operates hydrolysis of either [^3H] cGMP (substrate) into [^3H] 5′GMP. In a second step substrate and product are distinguished following addition of SPA yttrium silicate beads. Indeed, in the presence of zinc sulphate the linear [^3H] […] Close proximity of bound [^3H] […] The test volume is 100 pl and contains 20 mM Tris buffer (pH 7.4), 0.1 mg of BSA (bovine serum albumin)/ml, 5 mM Mg^2+, 1 μM motapizone (PDE3 Inhibitor), 10 nM PDE2 inhibitor 2-(3,4-dimethoxybenzyl)-7-[(1R,2R)-2-hydroxy-1-(2-phenylethyl)propyl]-5-methylimidazo[5,1-f][1,2,4]triazin-4(3H)-one, […] (cyclic guanosine monophosphate) (including about 50,000 cpm of [3H]cGMP as a tracer), 1 pl of the respective compound dilution in dimethylsulfoxide (DMSO) and sufficient PDE5-containing platelet lysat (10,000, g supernatant, see above) to ensure that 10-20 wt % of the cGMP is converted under the said experimental conditions. […] After a preincubation of 5 min at 37° C., the reaction is started by adding the substrate (cGMP) and the assay is incubated for a further 15 min; after that, it is stopped by adding SPA beads (50 pl). In accordance with the manufacturer's instructions, the SPA beads had previously been resuspended in water, but are then diluted 1:3 (v/v) in water; the diluted solution also contains 3 mM […]3-isobutyl-1-methylxanthine (IBMX) to ensure a complete PDE activity stop. After the beads have been sedimented (>30 min), the MTP's are analyzed in commercially available luminescence detection devices. The corresponding IC50 values of the compounds for the inhibition of PDE activity are determined from the concentration-effect curves by means of non-linear regression.

T1 sequence (Q07343 whole entry): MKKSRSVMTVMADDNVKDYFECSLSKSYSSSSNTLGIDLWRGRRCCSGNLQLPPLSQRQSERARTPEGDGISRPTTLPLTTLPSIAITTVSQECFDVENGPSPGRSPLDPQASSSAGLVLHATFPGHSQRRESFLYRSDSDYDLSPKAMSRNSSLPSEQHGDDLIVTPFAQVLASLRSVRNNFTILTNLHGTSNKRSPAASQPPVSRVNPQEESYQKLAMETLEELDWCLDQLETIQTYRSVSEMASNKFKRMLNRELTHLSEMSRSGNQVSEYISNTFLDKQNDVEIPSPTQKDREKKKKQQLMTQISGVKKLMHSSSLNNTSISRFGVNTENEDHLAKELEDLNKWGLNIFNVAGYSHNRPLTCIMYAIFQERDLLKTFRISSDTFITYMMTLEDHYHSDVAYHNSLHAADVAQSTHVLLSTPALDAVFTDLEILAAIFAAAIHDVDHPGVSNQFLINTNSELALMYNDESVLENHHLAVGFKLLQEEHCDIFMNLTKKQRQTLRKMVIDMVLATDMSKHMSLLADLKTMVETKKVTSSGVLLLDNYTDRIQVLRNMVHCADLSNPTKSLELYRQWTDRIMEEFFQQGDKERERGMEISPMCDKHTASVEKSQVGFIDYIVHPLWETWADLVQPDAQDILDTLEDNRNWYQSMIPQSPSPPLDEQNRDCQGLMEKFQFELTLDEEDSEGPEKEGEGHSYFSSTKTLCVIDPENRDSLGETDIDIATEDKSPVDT

| SMILES | IC50 (PDE4B1) [µM] | IC50 (human PDE5) [µM] |
| --- | --- | --- |
| CCOc1cc2c(cc1OC)C(c1cccc(C(=O)N3CCC(n4c(=O)c5sc(-c6ccccc6F)cc5n(Cc5nnn(CC)n5)c4=O)CC3)c1)=N[C@@H]1CCSC[C@H]21 [Example 39] | 0.001 to 0.01 | < 0.01 |
| CCOc1cc2c(cc1OC)C(c1ccc(C(=O)N3CCC(n4c(=O)c5sc(-c6ccccc6)cc5n(Cc5nnc(CC)o5)c4=O)CC3)cc1)=N[C@@H]1CCSC[C@H]21 [Example 4, 3-[1-({4-[(4aR,10bR)-9-ethoxy-8-methoxy-3,4,4a,10b-tetrahydro-1H-thiopyrano[4,3-c]isoquinolin-6-yl]phenyl}carbonyl)piperidin-4-yl]-1-[(5-ethyl-1,3,4-oxadiazol-2-yl)methyl]-6-phenylthieno[3,2-d]pyrimidine-2,4(1H,3H)-dione] | < 0.001 | 0.01 to 0.1 |
| CCOc1cc2c(cc1OC)C(c1ccc(C(=O)N3CCC(n4c(=O)c5sc(-c6ccccc6)cc5n(Cc5nnc(COC)o5)c4=O)CC3)cc1)=N[C@@H]1CCSC[C@H]21 [Example 8, 3-[1-({4-[(4aR,10bR)-9-ethoxy-8-methoxy-3,4,4a,10b-tetrahydro-1H-thiopyrano[4,3-c]isoquinolin-6-yl]phenyl}carbonyl)piperidin-4-yl]-1-{[5-(methoxymethyl)-1,3,4-oxadiazol-2-yl]methyl}-6-phenylthieno[3,2-d]pyrimidine-2,4(1H,3H)-dione] | < 0.001 | 0.01 to 0.1 |
| CCOc1cc2c(cc1OC)C(c1ccc(C(=O)N3CCC(n4c(=O)c5sc(-c6ccccc6)cc5n(Cc5csc(C)n5)c4=O)CC3)cc1)=N[C@@H]1CCSC[C@H]21 [Example 10, 3-[1-({4-[(4aR,10bR)-9-ethoxy-8-methoxy-3,4,4a,10b-tetrahydro-1H-thiopyrano[4,3-c]isoquinolin-6-yl]phenyl}carbonyl)piperidin-4-yl]-1-[(2-methyl-1,3-thiazol-4-yl)methyl]-6-phenylthieno[3,2-d]pyrimidine-2,4(1H,3H)-dione] | 0.001 to 0.01 | > 0.1 |
| CCOc1cc2c(cc1OC)C(c1ccc(C(=O)N3CCC(n4c(=O)c5sc(-c6ccccc6F)cc5n(Cc5nnn(CC)n5)c4=O)CC3)cc1)=N[C@@H]1CCSC[C@H]21 [Example 38, 3-[1-({4-[(4aR,10bR)-9-ethoxy-8-methoxy-3,4,4a,10b-tetrahydro-1H-thiopyrano[4,3-c]isoquinolin-6-yl]phenyl}carbonyl)piperidin-4-yl]-1-[(2-ethyl-2H-tetrazol-5-yl)methyl]-6-(2-fluorophenyl)thieno[3,2-d]pyrimidine-2,4(1H,3H)-dione] | > 0.01 | < 0.01 |

The next lines start with the values.

| IC50 (PDE4B1) [µM] | IC50 (human PDE5) [µM] | SMILES |
| --- | --- | --- |
| < 0.001 | > 0.1 | CCOc1cc2c(cc1OC)C(c1ccc(C(=O)N3CCC(n4c(=O)c5sc(-c6ccccc6)cc5n(Cc5ocnc5C)c4=O)CC3)cc1)=N[C@@H]1CCSC[C@H]21 [Example 54, 3-[1-({4-[(4aR,10bR)-9-ethoxy-8-methoxy-3,4,4a,10b-tetrahydro-1H-thiopyrano[4,3-c]isoquinolin-6-yl]phenyl}carbonyl)piperidin-4-yl]-1-[(4-methyl-1,3-oxazol-5-yl)methyl]-6-phenylthieno[3,2-d]pyrimidine-2,4(1H,3H)-dione] |
| 0.001 to 0.01 | > 0.1 | CCOc1cc2c(cc1OC)C(c1ccc(C(=O)N3CCC(n4c(=O)c5sc(-c6ccccc6)cc5n(Cc5nnc(C(C)(C)C)o5)c4=O)CC3)cc1)=N[C@@H]1CCSC[C@H]21 [Example 58, 1-[(5-tert-butyl-1,3,4-oxadiazol-2-yl)methyl]-3-[1-({4-[(4aR,10bR)-9-ethoxy-8-methoxy-3,4,4a,10b-tetrahydro-1H-thiopyrano[4,3-c]isoquinolin-6-yl]phenyl}carbonyl)piperidin-4-yl]-6-phenylthieno[3,2-d]pyrimidine-2,4(1H,3H)-dione] |
| 0.001 to 0.01 | < 0.01 | CCOc1cc2c(cc1OC)C(c1ccc(C(=O)N3CCC(n4c(=O)c5sc(-c6ccc7c(c6)OCO7)cc5n(Cc5nc(CC)no5)c4=O)CC3)cc1)=N[C@@H]1CCSC[C@H]21 [Example 46, 6-(1,3-benzodioxol-5-yl)-3-[1-({4-[(4aR,10bR)-9-ethoxy-8-methoxy-3,4,4a,10b-tetrahydro-1H-thiopyrano[4,3-c]isoquinolin-6-yl]phenyl}carbonyl)piperidin-4-yl]-1-[(3-ethyl-1,2,4-oxadiazol-5-yl)methyl]thieno[3,2-d]pyrimidine-2,4(1H,3H)-dione] |
| 0.001 to 0.01 | < 0.01 | CCOc1cc2c(cc1OC)C(c1ccc(C(=O)N3CCC(n4c(=O)c5sc(-c6ccccc6F)cc5n(Cc5nc(CC)no5)c4=O)CC3)cc1)=N[C@@H]1CCSC[C@H]21 [Example 48, 3-[1-({4-[(4aR,10bR)-9-ethoxy-8-methoxy-3,4,4a,10b-tetrahydro-1H-thiopyrano[4,3-c]isoquinolin-6-yl]phenyl}carbonyl)piperidin-4-yl]-1-[(3-ethyl-1,2,4-oxadiazol-5-yl)methyl]-6-(2-fluorophenyl)thieno[3,2-d]pyrimidine-2,4(1H,3H)-dione] |
| < 0.001 | > 0.1 | CCCOCc1noc(Cn2c(=O)n(C3CCN(C(=O)c4ccc(C5=N[C@@H]6CCSC[C@@H]6c6cc(OCC)c(OC)cc65)cc4)CC3)c(=O)c3sc(-c4ccccc4)cc32)n1 [Example 51, 3-[1-({4-[(4aR,10bR)-9-ethoxy-8-methoxy-3,4,4a,10b-tetrahydro-1H-thiopyrano[4,3-c]isoquinolin-6-yl]phenyl}carbonyl)piperidin-4-yl]-6-phenyl-1-{[3-(propoxymethyl)-1,2,4-oxadiazol-5-yl]methyl}thieno[3,2-d]pyrimidine-2,4(1H,3H)-dione] |
